How the values were obtained:
[1] = test system: human embryonic stem cell line H9; assay: Formation of pancreatic endocrine cells with gamma-secretase inhibitor L-685,458 (PCR); assay type: cell-based
Protocol: After this time interval, the cells were then treated for six days with combinations of retinoic acid and FGF as outlined in Example 2, then the culture medium was removed and replaced with medium comprising DMEM/F12 with 2% FBS, containing the γ-secretase inhibitors L-685,458 at 10 μM for three days.
Final data were expressed relative to a calibrator sample.

[2] = test system: human embryonic stem cell line H9; conditions: activin A or retinoic acid alone
Protocol: Cultures were harvested and samples of mRNA were collected for analysis.
Cells seeded on 0.1% Matrigel (BD) coated dishes were fixed with 4% paraformaldheyde for 20 min at room temperature. Fixed cells were blocked for 1 h at room temperature with PBS/0.1%BSA/10% normal chick serum /0.5% Triton X-100 and then incubated overnight with primary antibodies in PBS/0.1%BSA/10% normal chick serum at 4° C. After three washes in PBS/0.1% BSA, fluorescent secondary antibodies at a 1:100 dilution in PBS were incubated with cells for 1 h at room temperature to allow binding. Control samples included reactions where the primary antibody was omitted or where the primary antibody was replaced with corresponding matched negative control immunoglobulins at the same concentration as the primary antibodies. […]
Real-time PCR amplification and quantitative analysis: Unless otherwise stated, all reagents were purchased from Applied Biosystems. […] For each primer/probe set, a Ct value was determined as the cycle number at which the fluorescence intensity reached a specific value in the middle of the exponential region of amplification. Relative gene expression levels were calculated using the comparative Ct method. […] The normalized amount of target was calculated as 2-ΔCt, assuming amplification to be 100% efficiency. […]

[3] = test system: H9P49 embryonic stem cells; assay: Pancreatic endoderm under feeder-free conditions: retinoic acid analogues (real-time PCR); assay type: cell-based, human
Protocol: At day 5, cells were collected for evaluation by FACS and real-time PCR. […] The resulting definitive endoderm cells at day 5 were exposed to the following media conditions to induce pancreatic endoderm formation: culturing in DMEM/F12 media supplemented with 2% FBS and 1 μM all-trans retinoic acid (RA) (Catalog#R2625, Sigma, MO), or 0.1-10 μM AM-580 (4-[(5,6,7,8-Tetrahydro-5,5,8,8-tetramethyl-2-naphthalenyl)carboxamido]benzoic acid, Catalog#A8843, Sigma, MO), or 0.1-1 μM TTNPB (4-[(E)-2-(5,6,7,8-Tetrahydro-5,5,8,8-tetramethyl-2-naphthalenyl)-1-propenyl]benzoic acid Arotinoid acid, Catalog#T3757, Sigma, MO) for 3 days. AM-580 and TTNPB are retinoic acid analogs with affinity for retinoic acid receptors. RA treatment was followed by additional three day treatment in DMEM/F 12 media supplemented with 2% FBS and 20-50 ng/ml bFGF (Catalog#F0291, Sigma, MO).

H1P54 ES cells = assay: Evaluation of various GSK-3B inhibitors in DE formation (real-time PCR); assay type: cell-based, human; conditions: 100 nM for first two days, compared to GSK-3B inhibitor VIII and XII
Protocol: The effectiveness of a number of commercially available GSK-3B inhibitors was evaluated in formation of DE from human embryonic stem cells. The following GSK-3B inhibitors were evaluated at 100 nM: GSK-3B inhibitor VIII (Catalog#361549, Calbiochem, CA), GSK-3B inhibitor IX (Catalog#361550, Calbiochem, CA), GSK-3B inhibitor XI (Catalog#361553, Calbiochem, CA), GSK-3B inhibitor XII (Catalog#361554, Calbiochem, CA). […] Control cultures were treated with low serum plus high dose of AA. FIG. 47, panels a and b depicts the gene expression of definitive endoderm markers at day 5. GSK-3B inhibitor IX and XI were both effective in inducing DE formation as compared to GSK-3B inhibitor VIII and XII.

H9P44 cells = assay: Definitive endoderm on MEFs: growth factor combinations in low serum (FACS CXCR4, RT-PCR; Table V); assay type: cell-based, human; conditions: H9P44 on MEF, Day 3, normalized to Group 1 (control)
Protocol: H9P44 cells were plated onto 6 well plates previously coated with mitomycin treated mouse embryonic fibroblasts (MEF). Cells were grown until 70 to 80% confluency in ES cell medium consisting of DMEM/F12 (Invitrogen/GIBCO) supplemented with 20% knockout serum replacement, 100 nM MEM nonessential amino acids, 0.5 mM beta-mercaptoethanol, 2 mM L-glutamine (all from Invitrogen/GIBCO) and 8 ng/ml human basic fibroblast growth factor (bFGF) (R&D Systems).
Growth factors were added to increasing concentration of FBS in a stepwise manner as indicated in the following regimen: • Day 0: 0% FBS in DMEM/F12 • Day 1: 0.5% FBS in DMEM/F12 • Day 2: 2% FBS in DMEM/F12. • Day 3: Cells were harvested for FACS analysis and RT-PCR.
All growth factors were purchased from R&D Systems, MN. A detailed description and concentration of growth factors for each treatment group is shown below. • 1. Control—No growth factor added • 2. […] IL-4 (10 ng/ml) • 10. SDF1a (20 ng/ml) • 11. […] BMP2 (100 ng/ml)+BMP-4 (100 ng.ml)+BMP-6 (100 ng/ml)+BMP-7 (100 ng/ml) • 13.
Cells were harvested on Day 3 of DE protocol treatment. For analysis, an aliquot of treated cells was used for RNA preparation for RT-PCR and the rest of cells used for FACS analysis.
For RT-PCR analysis, cells were analyzed for expression of selected panel of definitive endoderm markers.

[4] = test system: H9P46-P48 embryonic stem cells; assay: Definitive endoderm on […]: effect of GSK-3B inhibitor IX (FACS CXCR4, PCR); assay type: cell-based, human; conditions: day 5
Protocol: In order to confirm that the effect of Wnt-3a was through the Wnt pathway, a GSK-3 inhibitor was used to activate the downstream targets of Wnt, such as beta catenin. […] FIG. 29, panel a depicts the expression of CXCR4 by FACS at day 5 in the absence of Wnt-3a or GSK-3B inhibitor, b) +20 ng/ml Wnt-3a, c) +1000 nM GSK-3B inhibitor IX, d) +500 nM GSK-3B inhibitor IX, e) +100 nM GSK-3B inhibitor IX, f) +10 nM GSK-3B inhibitor IX, g) +100 nM GSK-3B inhibitor IX for days 1-2, and h) +10 nM GSK-3B inhibitor IX for days 1-2.

[5] = test system: human embryonic stem cell line H1 at passage 55; assay: Definitive endoderm on human serum coated plates (real-time PCR); assay type: cell-based; conditions: with activin A, vs activin A only
Protocol: Cultures of the human embryonic stem cell line H1 at passage 55 were grown and differentiated on human serum (Sigma, #H1388, MO) coated plates. 0.5 ml of human serum was added to each well of 6 well tissue culture treated dish, incubated for 1 hr at room temperature, and aspirated before adding human embryonic stem cells. […] These findings parallel our findings for human embryonic stem cells cultured on […]™ or human fibronectin coated plates.

[6] = test system: H7P44 and H9P46 embryonic stem cells; assay: Definitive endoderm on […]: role of Wnt ligands (FACS CXCR4, real-time PCR); assay type: cell-based, human; conditions: low serum+AA+/-Wnt ligands, H7 and H9, five days
Protocol: In some of the cultures 20 ng/ml Wnt-3a (Catalog#1324-WN-002, R&D Systems, MN), 20 ng/ml Wnt-5a (Catalog#654-WN-010, R&D Systems, MN), 25 ng/ml Wnt-7a (Catalog#3008-WN-025, R&D Systems, MN), or 25 ng/ml Wnt-5b (Catalog#3006-WN-025, R&D Systems, MN) was added throughout the five day treatment. FIG. 24 depicts phase contrast images of H9P46 definitive endoderm culture in the presence of high concentration of (a) AA or (b) AA+20 ng/ml Wnt-3a. FIG. 25 depicts the expression of CXCR4 by FACS at day 5 for H7P44, and H9P46 lines cultured on […]™ (1:30 dilution) and exposed to the DE protocol+Wnt-3a (FIG. 25, panels b and d) and −Wnt-3a (FIG. 25, panels a and c).

CC(C)C[C@H](NC(=O)[C@H](Cc1ccccc1)C[C@@H](O)[C@H](Cc1ccccc1)NC(=O)OC(C)(C)C)C(=O)N[C@@H](Cc1ccccc1)C(N)=O [L-685,458]
NeuroD1 expression ([1]; L-685,458 10 μM): increased further | expression of Hes-1 ([1]; L-685,458 10 μM): decrease | time of maximal inhibition of Hes-1 expression ([1]; L-685,458 10 μM): day three post treatment | Ngn3 expression relative to activin A alone or retinoic acid with FGFs ([1]; L-685,458 10 μM for three days): approximately 50 fold | increase of insulin expression ([1]; L-685,458 10 μM for three days): 70 fold

CC1=C(/C=C/C(C)=C/C=C/C(C)=C/C(=O)O)C(C)(C)CCC1 [retinoic acid, all-trans retinoic acid]
expression of Pdx1 [2]: did not induce | foregut endoderm markers, such as CDX-2 and AFP ([3]; 1 μM RA followed by bFGF): robust expression | pancreatic endoderm markers, such as PDX-1 ([3]; 1 μM RA followed by bFGF): significantly upregulates

O=C1NC(=O)C(c2cn(CCCO)c3ncccc23)=C1c1cnccn1 [GSK-3B inhibitor XI]
inducing DE formation (H1P54 ES cells): effective

Group 9: IL-4 (10 ng/ml)
CXCR4 relative expression (H9P44 cells): 1.4 | Goosecoid relative expression (H9P44 cells): 0.9 | HNF-3B relative expression (H9P44 cells): 0.89 | Oct-4 relative expression (H9P44 cells): 0.85 | SOX-2 relative expression (H9P44 cells): 1.2 | Sox17 relative expression (H9P44 cells): 1

O=C1Nc2cc(Br)ccc2/C1=C1/Nc2ccccc2/C1=N\O [GSK-3B inhibitor IX]
number of CXCR4 positive cells ([4]; 20 ng/ml Wnt-3a or 100-1000 nM GSK-3B inhibitor): significantly increased | expression of CXCR4 by FACS ([4]; 10 nm GSK-3B inhibitor): very low | expression of definitive endoderm markers [5]: Robust expression | inducing DE formation (H1P54 ES cells): effective

CC1(C)CCC(C)(C)c2cc(C(=O)Nc3ccc(C(=O)O)cc3)ccc21 [AM-580, 4-[(5,6,7,8-Tetrahydro-5,5,8,8-tetramethyl-2-naphthalenyl)carboxamido]benzoic acid]
AFP and CDX-2 expression ([3]; 10 μM AM-580): suppressed | expression of PDX-1 ([3]; 10 μM AM-580): maintaining a high expression

B1: Group 2: Activin A (100 ng/ml) (protein, UniProt P08476 311-426, looked up)
Inhibin beta A chain: GLECDGKVNICCKKQFFVSFKDIGWNDWIIAPSGYHANYCEGECPSHIAGTSGSSLSFHSTVINHYRMRGHSPFANLKSCCVPTKLRPMSMLYYDDGQNIIKKDIQNMIVEECGCS
CXCR4 relative expression (H9P44 cells): 19.5 | Goosecoid relative expression (H9P44 cells): 2.8 | HNF-3B relative expression (H9P44 cells): 0.64 | Oct-4 relative expression (H9P44 cells): 1.1 | SOX-2 relative expression (H9P44 cells): 0.91 | Sox17 relative expression (H9P44 cells): 45

B2: Wnt-7a: Wnt ligand, Catalog#3008-WN-025, R&D Systems (protein, UniProt O00755 32-349, looked up)
Protein Wnt-7a: LGASIICNKIPGLAPRQRAICQSRPDAIIVIGEGSQMGLDECQFQFRNGRWNCSALGERTVFGKELKVGSREAAFTYAIIAAGVAHAITAACTQGNLSDCGCDKEKQGQYHRDEGWKWGGCSADIRYGIGFAKVFVDAREIKQNARTLMNLHNNEAGRKILEENMKLECKCHGVSGSCTTKTCWTTLPQFRELGYVLKDKYNEAVHVEPVRASRNKRPTFLKIKKPLSYRKPMDTDLVYIEKSPNYCEEDPVTGSVGTQGRACNKTAPQASGCDLMCCGRGYNTHQYARVWQCNCKFHWCCYVKCNTCSERTEMYTCK
expression of definitive endoderm markers (real-time PCR) [6]: minimal impact

B3: Wnt 5a: Wnt ligand, Catalog#654-WN-010, R&D Systems (protein, UniProt P22725 62-380, looked up)
Protein Wnt-5a: IIGAQPLCSQLAGLSQGQKKLCHLYQDHMQYIGEGAKTGIKECQYQFRHRRWNCSTVDNTSVFGRVMQIGSRETAFTYAVSAAGVVNAMSRACREGELSTCGCSRAARPKDLPRDWLWGGCGDNIDYGYRFAKEFVDARERERIHAKGSYESARILMNLHNNEAGRRTVYNLADVACKCHGVSGSCSLKTCWLQLADFRKVGDALKEKYDSAAAMRLNSRGKLVQVNSRFNSPTTQDLVYIDPSPDYCVRNESTGSLGTQGRLCNKTSEGMDGCELMCCGRGYDQFKTVQTERCHCKFHWCCYVKCKKCTEIVDQFVCK
expression of definitive endoderm markers (real-time PCR) [6]: minimal impact

B4: Wnt-5b: Wnt ligand, Catalog#3006-WN-025, R&D Systems (protein, UniProt Q9H1J7 18-359, looked up)
Protein Wnt-5b: QLLTDANSWWSLALNPVQRPEMFIIGAQPVCSQLPGLSPGQRKLCQLYQEHMAYIGEGAKTGIKECQHQFRQRRWNCSTADNASVFGRVMQIGSRETAFTHAVSAAGVVNAISRACREGELSTCGCSRTARPKDLPRDWLWGGCGDNVEYGYRFAKEFVDAREREKNFAKGSEEQGRVLMNLQNNEAGRRAVYKMADVACKCHGVSGSCSLKTCWLQLAEFRKVGDRLKEKYDSAAAMRVTRKGRLELVNSRFTQPTPEDLVYVDPSPDYCLRNESTGSLGTQGRLCNKTSEGMDGCELMCCGRGYNQFKSVQVERCHCKFHWCCFVRCKKCTEIVDQYICK
expression of definitive endoderm markers (real-time PCR) [6]: minimal impact

— patent US9096832B2, “Differentiation of human embryonic stem cells” (LifeScan, Inc., priority 2007, dated 2015)
